Source: patent EP0746294B1, “ABSORPTION ENHANCERS FOR TOPICAL PHARMACEUTICAL FORMULATIONS” (ODONTEX, INC., priority 1993, dated 1995)
Read-outs that look alike come from different tables or passages of the source.

How the values were obtained:
[1] = cited from earlier work
[2] = Penetration of drugs through shed snake skin pretreated with enhancer (Franz diffusion cell, HPLC); conditions: for RE (Relative enhancement compared to Azone®) / R.E. (Relative enhancement): 32°C; for R.E. (Relative enhancement): pH 7.0, relative to control (=1)
Protocol: The penetration promoting activity of DAIPD was compared to that of Azone®, taken as a typical enhancer, using shed snake skin as a model membrane. […] The permeants were selected to provide examples of basic drugs (clonidine), neutral drugs (hydrocortisone) and acidic drugs (indomethacin).
Shed snake skins were prepared as previously reported (Büyüktimkin, S., Büyüktimkin, N., and Rytting, J.H., Synthesis and enhancing effect of dodecyl 2-(N,N-dimethylamino) propionate on the transepidermal delivery of indomethacin, clonidine, and hydrocortisone, Pharm. Res., 10: 1632-1637, 1993) and as described in U.S. Patents No. 4,980,378 and No. 5,082,866, the disclosures of which are incorporated herein by reference. Shed snake skins were stored at -20°C. Before the experiment they were allowed to come to room temperature at least 12 hours before use. To reduce the variability of results, pieces cut from the same whole snake skin were used for each set of experiments
Indomethacin, clonidine, and hydrocortisone were assayed by HPLC procedures as described earlier; see Büyüktimkin et al., (1993), above.
Pieces of shed snake skin (approximately 3 x 3 cm) were pretreated with 15 µl of enhancer (divided into three 5 µl portions) 2 hr before the experiment. After mounting the skin on top of a Franz receptor cell filled with pH 7.0 (0.1 M) phosphate buffer, the donor cell was clamped on the top of the receptor cell. An aliquot of 0.5 ml of a suspension of hydrocortisone or indomethacin, prepared by suspending 50 mg or 25 mg of the drugs respectively, in 25 ml of the same buffer and stirring for 24 hr at 32°C, or a solution of clonidine (2%) in the same buffer were added to the donor cell. The solution in the receptor compartment was stirred by a magnetic stirrer. At appropriate time intervals samples were withdrawn from the receptor compartment and analyzed by HPLC.

porcine esterase = assay: Biodegradability of the enhancer in the presence of porcine esterase (HPLC disappearance of enhancer peak); format: in vitro ADME; conditions: 32°C, pH 7.0
Protocol: A 0.1 ml aliquot of porcine esterase (235 units per mg protein) was diluted to 100 ml with pH 7.0 phosphate buffer. The enhancer solution was prepared by dissolving -12 mg (-0.045 mmoles) of the enhancer in 10 ml acetonitrile. An aliquot of 100 µl of this solution was transferred into a 10 ml volumetric flask. 9.8 ml of pH 7.0 buffer and 100 µl diluted esterase solution were added. The mixture was kept in a water bath at 32°C with constant stirring. The disappearance of the enhancer peak was monitored by HPLC. The absorbance wavelength was 204 nm. The solvent system was a mixture of acetonitrile and 0.02 M aqueous sodium hexanesulfonate (7:4) with a flow rate of 0.9 ml/min. The retention time of DAIPD was 3.95 min. The kinetic runs were done in triplicate.
The existence of esterase activity has been reported in shed snake skin (Nghiem, B.T., and Higuchi, T., Esterase activity in snake skin, Int. J. Pharm. 44: 125-130, 1988) . To confirm the biodegradability of DAIPD, its fragmentation in the presence of porcine esterase was examined. […] Esterase-catalyzed biodegradability of the enhancer is therefore confirmed. […] (Hirvonen, J., Paronen, P., and Urtti, A., Reversible enhancement of transdermal propranolol by dodecyl N,N-dimethylamino acetate, 18th International Symposium on Controlled Release of Bioactive Materials, July 8-11, 1991, Amsterdam, p 31).

[3] = n-octanol/pH 7.0 buffer; cited from earlier work

| SMILES | RE (Relative enhancement compared to Azone®) ([2]; Clonidine) | RE (Relative enhancement compared to Azone®) ([2]; Hydrocortisone) | RE (Relative enhancement compared to Azone®) ([2]; Indomethacin) | R.E. (Relative enhancement) ([2]; clonidine) | R.E. (Relative enhancement) ([2]; hydrocortisone) | R.E. (Relative enhancement) ([2]; indomethacin) | log P [3] | also measured |
| --- | --- | --- | --- | --- | --- | --- | --- | --- |
| CCCCCCCCCCCCN1CCCCCC1=O [Azone®, 1-dodecylazacycloheptane-2-one] | 1 | 1 | 1 | 13 | 41 | 46 |  | enhancement of transdermal delivery of propranolol following pretreatment ([1]; after a week): the enhancement still existed; RE (Relative enhancement compared to Azone®) ([2]; Prazosin (45% ethanolic solution)): 1; RE (Relative enhancement compared to Azone®) ([2]; Prostaglandin E1): 1 |
| CCCCCCCCCCCC(=O)OC(C)CN(C)C (stereo not shown) [DAIPD, 1-(N,N-dimethylamino)-2-propanol dodecanoate] | approximately two-fold | approximately two-fold | approximately equal to that of Azone® | 27 | 88 | 53 |  | Lag times ([2]; permeation of Clonidine, standard deviation in brackets): No lag time enhancement was found; half-life at 45 µM (porcine esterase; pig, porcine esterase in phosphate buffer, degradation): 1.32 h; kobs (porcine esterase; pseudo first order degradation): 0.0087 min⁻¹ |
| CCCCCCCCCCCCOC(=O)CN(C)C [DDAA, dodecyl N,N-dimethylamino acetate] |  |  |  |  |  |  |  | enhancement of transdermal delivery of propranolol following pretreatment ([1]; after 4 days): no longer enhanced |
| Clc1cccc(Cl)c1N=C1NCCN1 [clonidine] |  |  |  |  |  |  | 0.4 |  |
| C[C@]12CCC(=O)C=C1CC[C@@H]1[C@@H]2[C@@H](O)C[C@@]2(C)[C@H]1CC[C@]2(O)C(=O)CO [hydrocortisone] |  |  |  |  |  |  | 0.8 |  |
| COc1ccc2c(c1)c(CC(=O)O)c(C)n2C(=O)c1ccc(Cl)cc1 [indomethacin] |  |  |  |  |  |  | 1.2 |  |
